Holding throughout (format): cell-based
Assay [1] concerns HeLa-Zellen. Description: Cell proliferation test (MTT) after short incubation. The following applies: free drug in PBS pH 5,5, different concentrations, 1, 2 and 3 h incubation, 1x10^4 HeLa cells, MTT after 18 h. The source says:
Um die Toxizität von Doxorubicin auf HeLa-Zellen zu untersuchen, wurde ein Inkubationszeitabhängiger Test mit dem freien Wirkstoff durchgeführt. Dafür wurde Doxorubicin in PBS bei pH 5,5 gelöst und bei unterschiedlichen Konzentrationen für 1 Stunde, 2 Stunden und 3 Stunden mit 1x10^4 HeLa-Zellen inkubiert. Nach dem Inkubieren wurden die Zellen mit DMEM gewaschen und nach 18 Stunden ein Zellproliferationstest (MTT) durchgeführt.
Danach wurde die oben gezeigte erfindungsgemäße Verbindung mit Doxorubicin als Cargo-Molekülstruktur getestet. Die Verbindung wurde - genau wie die Kontrollen (freies Doxorubicin, unbehandelte Zellen) -je dreifach bei gleicher Konzentration für eine Stunde inkubiert. Um die Disulfidbrücke zu schützen wurden die Zellen mit hoch-glucosehaltigem DMEM ohne Methionin, Cysteine und Glutamine gewaschen. Nach der Inkubation wurden die Zellen mit DMEM gewaschen und nach 18 Stunden wurde ein MTT-Assay durchgeführt. […] Die Ergebnisse sind in FIG.6 zusammen gefasst.

In assay [2] the test system is HeLa-Zellen. The assay is described as follows: Flow cytometry quantification of cellular uptake. Particulars: for Aufnahme in Zellen: summary statement in the description, citing FIG.1A/1B, 2, 3, 4. The source says: Um die Aufnahme der Verbindungen in eukaryotische Zellen zu quantifizieren, wurden umfangreiche Durchflusszytometrieuntersuchungen mit den Verbindungen 2 bis 7 (Verbindungen 2 und 5 sind Vergleichsbeispiele) durchgeführt. Ferner wurden auch die aus dem Stand der Technik bekannten zellpenetrierenden Peptide Tat 10, Penetratin 11, Heptaarginin 12 und Decaarginin 13 untersucht. Zu diesem Zweck wurden auch die Peptide mit TAMRA markiert.
Zunächst wurden HeLa-Zellen mit den zu untersuchenden Substanzen bei einer Konzentration von 20 µM in serumfreiem DMEM bei 37°C für 10 Minuten inkubiert. Danach wurden die Zellen dreimal mit PBS gewaschen und nach einem Trypsinverdau nochmals mit PBS gewaschen. Danach wurden die Untersuchungen durchgeführt. […] Die Ergebnisse sind in FIG.2 zusammen gefasst.

In assay [3] the test system is HeLa-Zellen. The assay is described as follows: Study of the uptake mechanism (temperature, concentration, serum) by fluorescence. Here is the method: Es wurden weitere Fluoreszenzuntersuchungen an Verbindung 4 durchgeführt. […] Daraus kann angenommen werden, dass der Mechanismus energieunabhängig verläuft.
Ferner wurden HeLa-Zellen mit der Verbindung 4 bei unterschiedlichen Konzentrationen inkubiert. Schon bei 80 nM wurde eine Aufnahme in die Zellen beobachtet. Bei 1 µM wurde der größte Effekt beobachtet.
Darüber hinaus wurde untersucht, ob Serum die Aufnahme in die Zellen behindern kann. Dafür wurde die Inkubationslösung mit 2% fetalem Kälberserum versetzt.

Setting [4] is: HeLa cells incubated at different concentrations.

In the case of `COc1cccc2c1C(=O)c1c(O)c3c(c(O)c1C2=O)C[C@@](O)(C(=O)CO)C[C@@H]3O[C@H]1C[C@H](N)[C@H](O)[C@H](C)O1` [Doxorubicin, reference compound], in the assay on HeLa-Zellen [1], the “Toxizität auf HeLa-Zellen” value is given as “mit längerer Inkubation nahm die Toxizität zu”.

For “TAMRA-heptatrimethylammonium-COSS [Verbindung 3]”, the “Aufnahme in Zellen” value with HeLa-Zellen [2] is “besonders ausgeprägte Aufnahme in Zellen”.

For TAMRA-heptaguanidin-COSS [Verbindung 4], in the assay with HeLa-Zellen [3] (setting [4]), the “Konzentration, bei der der größte Effekt beobachtet wurde” value was 1 µM and the “Konzentration, bei der schon eine Aufnahme in die Zellen beobachtet wurde” value was 80 nM. Further, in the assay on HeLa-Zellen [3] (incubation at 37°C versus 4°C), the “Aufnahme bei den unterschiedlichen Temperaturen” value is “kaum unterschiedlich”. Also, the “Einfluss von Serum auf die Aufnahme in die Zellen” value with HeLa-Zellen [3] (incubation solution with 2% fetal calf serum versus serum-free tests) was “kein Unterschied”. For the same compound, the “Aufnahme stärker ausgeprägt als die des Tat-Peptids” value with HeLa-Zellen [2] (20 µM, serum-free DMEM, 37°C, 10 min, fold versus TAMRA-labelled Tat peptide) was found to be 155 mal. Also, in the assay on HeLa-Zellen [2] (20 µM, serum-free DMEM, 37°C, 10 min, ranking among compounds 2 to 7 and TAMRA-labelled peptides 10 to 13, FIG.2), the Aufnahme result is “beste Aufnahme”. In addition, in the assay on HeLa-Zellen [2], the “Aufnahme in Zellen” value was “besonders ausgeprägte Aufnahme in Zellen”.

Take “TAMRA-hepta-4-guanidinobuttersäure-COSS-amid [Verbindung 7]”: in the assay on HeLa-Zellen [2], the “Aufnahme in Zellen” value is on record as “besonders ausgeprägte Aufnahme in Zellen”.

Regarding “TAMRA-hepta-4-trimethylammoniumbuttersäure-COSS-amid [Verbindung 6]”, the “Aufnahme in Zellen” value in the assay with HeLa-Zellen [2] is given as “besonders ausgeprägte Aufnahme in Zellen”.

These data come from EP3448864B1, “SILSE[…] TRANSPORT COMPOUNDS” (Technische Universität Darmstadt, priority 2016, dated 2017).
